The target of data set [1] is T1, Acetylcholinesterase (Homo sapiens, UniProt P22303).
The target in data set [2] is T2, 5-hydroxytryptamine receptor 3A (Homo sapiens, UniProt P46098).
T2 sequence (P46098 whole entry): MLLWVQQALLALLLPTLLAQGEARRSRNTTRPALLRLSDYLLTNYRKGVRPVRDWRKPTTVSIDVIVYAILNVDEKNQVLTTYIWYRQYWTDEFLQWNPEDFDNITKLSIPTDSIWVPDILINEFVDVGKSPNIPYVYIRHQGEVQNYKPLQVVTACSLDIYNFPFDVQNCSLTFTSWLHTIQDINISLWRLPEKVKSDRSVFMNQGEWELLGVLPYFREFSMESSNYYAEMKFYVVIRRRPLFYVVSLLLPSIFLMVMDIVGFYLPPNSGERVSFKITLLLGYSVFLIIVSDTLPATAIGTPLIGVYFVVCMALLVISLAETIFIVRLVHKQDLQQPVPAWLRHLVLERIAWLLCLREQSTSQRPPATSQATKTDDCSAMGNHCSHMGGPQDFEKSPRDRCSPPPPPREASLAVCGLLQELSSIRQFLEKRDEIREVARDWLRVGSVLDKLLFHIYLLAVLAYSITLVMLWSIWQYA
Description: Binding affinity to 5HT3 receptor

In data set [3] the target is T3, Amine oxidase [flavin-containing] A (Homo sapiens, UniProt P21397).
T3 sequence (P21397 whole entry): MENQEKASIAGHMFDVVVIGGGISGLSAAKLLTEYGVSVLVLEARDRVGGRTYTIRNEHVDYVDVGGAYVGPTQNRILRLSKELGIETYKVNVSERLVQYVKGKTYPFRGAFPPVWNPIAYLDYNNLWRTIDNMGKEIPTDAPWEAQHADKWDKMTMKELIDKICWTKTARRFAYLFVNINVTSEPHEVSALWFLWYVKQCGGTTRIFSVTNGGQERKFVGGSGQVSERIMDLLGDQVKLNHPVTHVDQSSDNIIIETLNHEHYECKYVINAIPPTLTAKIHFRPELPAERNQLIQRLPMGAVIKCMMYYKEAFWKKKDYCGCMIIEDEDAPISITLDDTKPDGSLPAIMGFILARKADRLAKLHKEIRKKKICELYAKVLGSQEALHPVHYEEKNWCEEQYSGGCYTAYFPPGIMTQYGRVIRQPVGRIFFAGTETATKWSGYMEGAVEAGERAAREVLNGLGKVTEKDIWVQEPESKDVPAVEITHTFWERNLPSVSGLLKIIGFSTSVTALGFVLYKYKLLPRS

Data set [4] deals with T4, Amine oxidase [flavin-containing] B (Homo sapiens, UniProt P27338).
T4 sequence (P27338 whole entry): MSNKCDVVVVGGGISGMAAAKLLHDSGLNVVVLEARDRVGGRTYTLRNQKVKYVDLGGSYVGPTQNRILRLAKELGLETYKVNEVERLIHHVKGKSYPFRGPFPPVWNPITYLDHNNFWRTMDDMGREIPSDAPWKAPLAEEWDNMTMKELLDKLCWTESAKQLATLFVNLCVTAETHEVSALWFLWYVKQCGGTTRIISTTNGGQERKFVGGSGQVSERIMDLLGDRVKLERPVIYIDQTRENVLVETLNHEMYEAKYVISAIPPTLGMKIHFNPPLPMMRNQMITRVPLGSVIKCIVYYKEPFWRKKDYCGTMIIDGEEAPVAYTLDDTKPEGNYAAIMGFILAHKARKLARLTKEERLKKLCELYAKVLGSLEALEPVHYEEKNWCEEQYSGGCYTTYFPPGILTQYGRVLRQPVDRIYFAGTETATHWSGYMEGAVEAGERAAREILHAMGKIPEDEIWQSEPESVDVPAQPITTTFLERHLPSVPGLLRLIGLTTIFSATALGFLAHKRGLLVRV

The nature of data set [5]: Inhibition of amyloid beta aggregation at 100 uM. Set-up: scale not given: the % may be the effect or the level left.
The target of data set [6] is Sodium-dependent serotonin transporter (Homo sapiens, UniProt P31645).
Sodium-dependent serotonin transporter, sequence (P31645 whole entry): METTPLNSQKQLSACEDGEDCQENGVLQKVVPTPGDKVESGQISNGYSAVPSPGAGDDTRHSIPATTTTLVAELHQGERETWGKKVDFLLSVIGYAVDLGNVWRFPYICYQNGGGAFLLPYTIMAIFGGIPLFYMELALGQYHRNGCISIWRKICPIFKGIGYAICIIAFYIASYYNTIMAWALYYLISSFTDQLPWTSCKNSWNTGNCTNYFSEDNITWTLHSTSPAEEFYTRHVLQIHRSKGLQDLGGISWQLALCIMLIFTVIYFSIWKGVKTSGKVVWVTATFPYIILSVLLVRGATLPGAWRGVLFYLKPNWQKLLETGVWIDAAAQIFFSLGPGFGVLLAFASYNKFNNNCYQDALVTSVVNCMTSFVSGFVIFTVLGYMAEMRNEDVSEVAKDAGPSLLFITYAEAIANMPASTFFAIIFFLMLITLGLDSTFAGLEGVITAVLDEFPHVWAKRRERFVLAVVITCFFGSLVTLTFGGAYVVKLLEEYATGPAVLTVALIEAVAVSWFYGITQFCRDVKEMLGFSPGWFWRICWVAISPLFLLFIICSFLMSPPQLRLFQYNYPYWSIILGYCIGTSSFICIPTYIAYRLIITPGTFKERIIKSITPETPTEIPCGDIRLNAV
The nature of data set [7]: Inhibition of metal-induced amyloid beta aggregation at 50 uM. The arrangement: scale not given: the % may be the effect or the level left.
For the next data set, the species on record is Homo sapiens. The data set can be described thus: Selectivity for human Ach over human BuCh.
The target in data set [8] is T5, Muscarinic acetylcholine receptor M2 (Homo sapiens) (UniProt P08172).
T5 sequence (whole entry): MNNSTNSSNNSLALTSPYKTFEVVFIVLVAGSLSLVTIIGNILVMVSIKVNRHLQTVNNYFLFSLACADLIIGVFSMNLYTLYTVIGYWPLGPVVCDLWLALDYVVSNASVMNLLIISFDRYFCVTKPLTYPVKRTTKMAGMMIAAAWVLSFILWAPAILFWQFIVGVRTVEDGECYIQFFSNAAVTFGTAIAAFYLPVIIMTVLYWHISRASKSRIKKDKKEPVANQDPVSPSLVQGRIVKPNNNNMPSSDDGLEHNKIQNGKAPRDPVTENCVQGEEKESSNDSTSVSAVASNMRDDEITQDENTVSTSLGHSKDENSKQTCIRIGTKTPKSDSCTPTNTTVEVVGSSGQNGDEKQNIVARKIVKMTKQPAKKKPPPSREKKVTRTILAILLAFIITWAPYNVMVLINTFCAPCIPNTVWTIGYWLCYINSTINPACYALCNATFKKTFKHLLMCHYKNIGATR
The data set can be described thus: Antagonist activity at muscarinic M2 receptor. In kind it is functional.

Data set [9] can be described thus: Protection against ROS induced by oxidative stress at 10 uM in neuronal cells. In kind it is functional.
The target of data set [10] is T1, Acetylcholinesterase. The source holds these as a separate data set.
Description: Inhibition of human AchE-induced amyloid beta aggregation
In another data set the target is D(2) dopamine receptor (Homo sapiens, UniProt P14416). The data set can be described thus: Binding affinity to human dopaminergic D2 receptor.
D(2) dopamine receptor, sequence (P14416 whole entry): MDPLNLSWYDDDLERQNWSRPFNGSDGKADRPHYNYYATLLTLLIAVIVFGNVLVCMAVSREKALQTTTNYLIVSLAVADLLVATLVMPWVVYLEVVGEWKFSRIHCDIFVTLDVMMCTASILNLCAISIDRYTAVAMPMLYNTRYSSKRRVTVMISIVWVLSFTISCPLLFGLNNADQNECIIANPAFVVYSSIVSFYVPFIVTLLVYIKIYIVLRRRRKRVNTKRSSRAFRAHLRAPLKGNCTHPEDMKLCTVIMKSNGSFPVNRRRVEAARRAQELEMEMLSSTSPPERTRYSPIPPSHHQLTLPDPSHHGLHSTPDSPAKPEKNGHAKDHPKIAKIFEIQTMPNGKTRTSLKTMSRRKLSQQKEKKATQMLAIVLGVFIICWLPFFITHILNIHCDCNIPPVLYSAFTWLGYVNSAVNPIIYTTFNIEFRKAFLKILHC
The target of another data set is D(3) dopamine receptor (Homo sapiens, UniProt P35462). Nature of the data set: Binding affinity to human dopaminergic D3 receptor.
D(3) dopamine receptor, sequence (P35462 whole entry): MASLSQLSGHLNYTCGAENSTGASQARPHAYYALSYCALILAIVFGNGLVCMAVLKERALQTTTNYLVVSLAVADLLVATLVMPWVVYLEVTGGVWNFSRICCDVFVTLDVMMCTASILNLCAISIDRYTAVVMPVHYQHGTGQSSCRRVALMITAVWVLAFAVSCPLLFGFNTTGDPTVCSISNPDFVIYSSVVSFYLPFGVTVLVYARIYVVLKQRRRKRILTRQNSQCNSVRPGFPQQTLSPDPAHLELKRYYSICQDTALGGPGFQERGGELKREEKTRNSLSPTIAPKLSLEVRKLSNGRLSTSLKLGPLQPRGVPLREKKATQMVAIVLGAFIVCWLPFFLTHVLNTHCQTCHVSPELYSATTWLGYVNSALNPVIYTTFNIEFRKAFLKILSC
The target of the next data set is T6, D(4) dopamine receptor (Homo sapiens, UniProt P21917).
T6 sequence (P21917 whole entry): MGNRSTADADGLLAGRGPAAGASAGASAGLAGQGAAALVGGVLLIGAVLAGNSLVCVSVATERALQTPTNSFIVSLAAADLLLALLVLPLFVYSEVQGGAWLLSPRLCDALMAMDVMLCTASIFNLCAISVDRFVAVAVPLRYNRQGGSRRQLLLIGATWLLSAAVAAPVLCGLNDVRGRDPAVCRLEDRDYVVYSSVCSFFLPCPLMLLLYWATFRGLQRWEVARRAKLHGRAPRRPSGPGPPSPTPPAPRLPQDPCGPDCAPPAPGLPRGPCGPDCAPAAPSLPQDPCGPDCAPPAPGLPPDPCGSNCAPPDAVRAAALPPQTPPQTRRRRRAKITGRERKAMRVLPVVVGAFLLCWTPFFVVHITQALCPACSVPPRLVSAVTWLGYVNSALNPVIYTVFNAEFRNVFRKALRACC
The data set can be described thus: Binding affinity to human dopaminergic D4 receptor.

Data set [11] concerns the target T7, 5-hydroxytryptamine receptor 1A (Homo sapiens, UniProt P08908).
T7 sequence (P08908 whole entry): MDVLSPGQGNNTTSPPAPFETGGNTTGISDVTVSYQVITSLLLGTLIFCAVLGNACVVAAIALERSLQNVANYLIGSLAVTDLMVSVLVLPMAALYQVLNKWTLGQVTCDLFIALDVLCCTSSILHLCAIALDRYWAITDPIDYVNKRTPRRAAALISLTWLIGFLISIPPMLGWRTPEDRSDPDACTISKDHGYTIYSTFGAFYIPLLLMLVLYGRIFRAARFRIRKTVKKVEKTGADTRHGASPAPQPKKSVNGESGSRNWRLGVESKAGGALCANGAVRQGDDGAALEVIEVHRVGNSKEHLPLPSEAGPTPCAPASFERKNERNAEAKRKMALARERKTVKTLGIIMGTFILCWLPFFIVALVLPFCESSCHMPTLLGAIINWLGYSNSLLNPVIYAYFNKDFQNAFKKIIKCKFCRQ
The data set can be described thus: Binding affinity to human 5HT1A receptor.

For another data set, the target named is Beta-secretase 1 (Homo sapiens, UniProt P56817). Nature of the data set: Inhibition of BACE1.
Beta-secretase 1, sequence (P56817 whole entry): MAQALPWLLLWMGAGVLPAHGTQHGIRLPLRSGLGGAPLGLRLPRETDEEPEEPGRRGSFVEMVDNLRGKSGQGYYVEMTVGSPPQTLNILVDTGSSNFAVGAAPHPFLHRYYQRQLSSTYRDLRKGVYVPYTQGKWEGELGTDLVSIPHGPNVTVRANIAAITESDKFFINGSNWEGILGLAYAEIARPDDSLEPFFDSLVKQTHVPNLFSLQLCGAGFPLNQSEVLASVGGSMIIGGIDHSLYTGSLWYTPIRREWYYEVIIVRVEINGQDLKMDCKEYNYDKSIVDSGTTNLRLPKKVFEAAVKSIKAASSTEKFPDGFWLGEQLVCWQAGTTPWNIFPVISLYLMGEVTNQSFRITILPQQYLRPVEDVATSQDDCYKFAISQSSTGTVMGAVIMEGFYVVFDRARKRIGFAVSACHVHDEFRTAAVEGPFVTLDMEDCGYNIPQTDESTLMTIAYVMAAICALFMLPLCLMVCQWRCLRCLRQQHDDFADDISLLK
The target of data set [12] is T1, Acetylcholinesterase. The data set can be described thus: Inhibition of human AchE induced amyloid beta42 aggregation.
Data set [13] can be described thus: Inhibition of zinc-induced amyloid beta aggregation at 25 uM.
Substrate in data set [14]: CCN(CCCCCCNC1=CC(=O)C(NCCCCCCN(CC)Cc2ccccc2OC)=CC1=O)Cc1ccccc1OC
Nature of the data set: Binding affinity to NQQ1.

T1 sequence (P22303 whole entry): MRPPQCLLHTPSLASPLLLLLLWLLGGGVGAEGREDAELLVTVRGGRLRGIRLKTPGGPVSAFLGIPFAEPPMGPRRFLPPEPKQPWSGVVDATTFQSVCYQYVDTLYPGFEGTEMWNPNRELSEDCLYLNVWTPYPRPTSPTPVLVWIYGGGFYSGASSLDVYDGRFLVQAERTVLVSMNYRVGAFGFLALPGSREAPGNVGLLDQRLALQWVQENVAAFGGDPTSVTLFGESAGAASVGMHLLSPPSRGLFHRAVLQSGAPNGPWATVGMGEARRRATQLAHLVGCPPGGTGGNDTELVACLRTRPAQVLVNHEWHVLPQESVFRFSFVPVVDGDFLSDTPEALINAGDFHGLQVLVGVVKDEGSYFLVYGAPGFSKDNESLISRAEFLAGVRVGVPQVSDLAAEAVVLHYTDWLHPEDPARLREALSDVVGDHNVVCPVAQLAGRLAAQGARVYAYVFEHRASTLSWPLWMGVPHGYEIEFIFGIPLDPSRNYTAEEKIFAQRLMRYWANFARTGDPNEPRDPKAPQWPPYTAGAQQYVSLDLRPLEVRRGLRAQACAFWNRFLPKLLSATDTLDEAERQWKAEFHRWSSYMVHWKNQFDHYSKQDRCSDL

Consider `c1ccc2c(NCCc3ccc(OCCCN4CCCCC4)cc3)c3c(nc2c1)CCCC3`, for which, on Acetylcholinesterase [1], the IC50 worked out at 2.6 nM. The molecule further registered an inhibition constant (Ki) in [2] of 0.00033 µM. With `C#CCN(C)C(C)Cc1cccc(OC(=O)N(C)CCCCCC)c1` (stereo not given), the IC50 in data set [3] came to 20 µM; in [4], 1.5 µM.

`C#CCN(C)Cc1ccnc2c(O)cccc12`: the IC50 in data set [3] worked out at 0.037 µM; in data set [4], 0.057 µM. `Clc1cccc(Cl)c1CO/N=C/c1cc[n+](CCCc2ccccc2)cc1` gave an IC50 against Acetylcholinesterase [1] of 180 nM. In data set [5], this molecule showed an Activity of 60%. With `C#CCN[C@@H]1CCc2cc(Cl)c(OC(=O)N(C)CCC)cc21`, the figures for the IC50 (against Acetylcholinesterase [1]; in data set [3]; in data set [4]) were 43900 nM, 375 µM and 32 µM, respectively. The molecule `CCN(C)C(=O)Oc1cccc([C@H](C)N(C)C)c1` [RIVASTIGMINE] registered an IC50 in data set [6] above 1 µM. As to `C#CCN[C@@H]1CCc2ccc(OC(=O)N(C)CC)cc21` [LADOSTIGIL], the IC50 at Acetylcholinesterase [1] worked out at 52400 nM; in data set [3], 85 µM; in data set [4], 120 µM. With `COc1ccccc1CNCCCNCCCNCCC[n+]1c(-c2ccccc2)c2cc(N)ccc2c2ccc(N)cc21`, the IC50 at Acetylcholinesterase [1] stood at 952 nM. As to `Cc1c(O[C@@H]2O[C@H](CO)[C@@H](O)[C@H](O)[C@H]2O)c(=O)ccn1C`, the Activity in data set [7] is above 50%. `O=C(CCCCCCNc1c2c(nc3cc(Cl)cc(Cl)c13)CCCC2)NCCc1c[nH]c2ccccc12`: the Selectivity ratio in the data set filed under Homo sapiens was 1000. As for `C#CCN1CCN(Cc2ccnc3c(O)cccc23)CC1`, the figures for the IC50 in data set [3] and in data set [4] were 300 µM and 64.2 µM, respectively. `Clc1cccc(Cl)c1CO/N=C/c1cc[n+](CCC[n+]2ccc(/C=N/OCc3c(Cl)cccc3Cl)cc2)cc1` had an IC50 against Acetylcholinesterase [1] of 6000 nM. In data set [5], this molecule registered an Activity of 55%.

For `COc1ccccc1CN(C)CCCCCC(=O)N(C)CCCCCCCCN(C)C(=O)CCCCCN(C)Cc1ccccc1OC`, the Kb in [8] is 0.41 µM. In turn, `Cc1c(N2CCN(C)CC2)nc2ccccc2c1C(=O)NCCCCCCCNc1c2c(nc3ccccc13)CCCC2` registered an inhibition constant Ki in data set [2] of 0.0056 µM. Regarding `O=C(CCc1c[nH]c2ccccc12)NCCCCCCNc1c2c(nc3cc(Cl)ccc13)CCCC2`, the IC50 at Acetylcholinesterase [1] was 0.02 nM; in [5], 2 µM. Regarding `O=C(CCCCC1CCSS1)NCCCNc1c2c(nc3cc(Cl)ccc13)CCCC2` (stereo not given) [LIPOCRINE], the IC50 against Acetylcholinesterase [1] worked out at 0.25 nM; at Acetylcholinesterase [10], 45 µM. In data set [9], this molecule registered an Activity of 62%. `CCN(CCCCCC(=O)N1CCC(C2CCN(C(=O)CCCCCN(CC)Cc3ccccc3OC)CC2)CC1)Cc1ccccc1OC` showed a Kb in data set [8] of 0.66 µM. For the molecule `Fc1ccc(-c2cncc(CNC[C@H]3CCc4ccccc4O3)c2)cc1` [SARIZOTAN], the IC50 (at D(2) dopamine receptor; on D(3) dopamine receptor; at D(4) dopamine receptor; in data set [11]; in [2]) was below 0.006 µM throughout. On to `CCN(CCCCCCNC1=CC(=O)C(NCCCCCCN(CC)Cc2ccccc2OC)=CC1=O)Cc1ccccc1OC` [MEMOQUIN], for which the values for the IC50 at Beta-secretase 1 and on Acetylcholinesterase [12] were 0.108 µM and 5.93 µM, respectively.

On to `O=C(O)CN(CCN(CC(=O)O)CC(=O)Nc1ccc(-c2nc3ccccc3s2)cc1)CCN(CC(=O)O)CC(=O)Nc1ccc(-c2nc3ccccc3s2)cc1`, for which the IC50 in data set [13] was above 50%. Take `O=C(CCc1c[nH]c2ccccc12)NCCCCCCCNc1c2c(nc3cc(Cl)ccc13)CCCC2`: the IC50 at Acetylcholinesterase [1] is 0.06 nM; against Acetylcholinesterase [10], 9 µM. Moreover, in data set [5], the Activity amounted to 65%. In the case of `C#CCNCc1ccnc2c(O)cccc12`, the IC50 in data set [3] came to 2.39 µM; in data set [4], 4.24 µM.

Turning to `CN(CCN(C)Cc1cc(O[C@@H]2O[C@H](CO)[C@@H](O)[C@H](O)[C@H]2O)cc(C(C)(C)C)c1O)Cc1cc(O[C@H]2O[C@@H](CO)[C@H](O)[C@@H](O)[C@@H]2O)cc(C(C)(C)C)c1O`, the IC50 in data set [7] is reported as above 50%.

B1: Quinone oxidoreductase (Homo sapiens), Q08257 (protein)
chain: MATGQKLMRAVRVFEFGGPEVLKLRSDIAVPIPKDHQVLIKVHACGVNPVETYIRSGTYSRKPLLPYTPGSDVAGVIEAVGDNASAFKKGDRVFTSSTISGGYAEYALAADHTVYKLPEKLDFKQGAAIGIPYFTAYRALIHSACVKAGESVLVHGASGGVGLAACQIARAYGLKILGTAGTEEGQKIVLQNGAHEVFNHREVNYIDKIKKYVGEKGIDIIIEMLANVNLSKDLSLLSHGGRVIVVGSRGTIEINPRDTMAKESSIIGVTLFSSTKEEFQQYAAALQAGMEIGWLKPVIGSQYPLEKVAEAHENIIHGSGATGKMILLL
Turning to B1, the Km in data set [14] is 12.7 µM.

What is called Ki is a dissociation constant, usually derived from enzyme kinetics or from competition with a known ligand. The term Kb denotes the equilibrium dissociation constant of an antagonist, usually derived from a functional assay. The Km is the concentration of substrate that gives half-maximal velocity.

The record behind these values is ChEMBL document CHEMBL1141467, “Multi-target-directed ligands to combat neurodegenerative diseases” (J Med Chem, 2008).
